Consider 17 compounds from paper PMC10341893, “Motifs in Natural Products as Useful Scaffolds to Obtain Novel Benzo[d]imidazole-Based Cannabinoid Type 2 (CB2) Receptor Agonists” (International Journal of Molecular Sciences, 2023).

Chain of hCB2 receptor (P34972 whole entry): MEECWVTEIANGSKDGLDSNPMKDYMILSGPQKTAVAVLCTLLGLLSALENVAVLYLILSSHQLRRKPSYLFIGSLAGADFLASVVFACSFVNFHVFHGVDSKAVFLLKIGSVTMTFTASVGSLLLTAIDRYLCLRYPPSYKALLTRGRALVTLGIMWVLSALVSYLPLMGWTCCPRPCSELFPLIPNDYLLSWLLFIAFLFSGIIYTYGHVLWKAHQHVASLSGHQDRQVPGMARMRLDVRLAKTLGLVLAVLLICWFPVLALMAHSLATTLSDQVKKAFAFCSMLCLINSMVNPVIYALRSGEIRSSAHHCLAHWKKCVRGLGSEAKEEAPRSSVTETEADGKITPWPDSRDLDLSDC

The first test addresses hCB2 receptor (Homo sapiens, UniProt P34972). In words: Single-dose radioligand displacement assay ([3H]WIN55212-2). Also on record: host or cells: CHO cells. The conditions noted are these: 10 µM single dose; membranes from recombinant CHO cells expressing human CB2; duplicate. Type of test: binding. As to the method: To assess ligand binding to CB2 receptors, radioligand displacement assay at a single dose (10 μM) was performed in membranes obtained from recombinant CHO cells expressing human CB2 receptors (Eurofins Cerep SA, France). Out of 26 compounds, more than 50% of the molecules presented >50% displacement, while 20% of the compounds (5, 6, 16, 19, 22) presented >80% displacement of radioligand binding at a 10 μM dose. Compounds 5, 6, 16, 19, and 22 were further tested for CB2 receptor activation (agonist activity, see below) and CB2/CB1 selectivity.
All membrane preparations for these studies were generated at Cerep Inc. according to standard protocols. Duplicate determinations were performed for each test compound. Compounds were dissolved in DMSO to generate a stock solution. Radioligand binding methods were adapted from Munro et al..
Take `c1ccc(Cn2c(SC34CC5CC(CC(C5)C3)C4)nc3ccccc32)cc1` [Compound 14, 2-(adamantan-1-ylthio)-1-benzyl-1H-benzo[d]imidazole]: the “Inhibition (%) of [3H]WIN55212-2 specific binding” value (shortened to “Inhibition (%)”) came to 69%.

As to `CC(C)=CCC/C(C)=C/COc1nc2ccccc2n1Cc1cccc2ccccc12` [Compound 10, (E)-2-((3,7-dimethylocta-2,6-dien-1-yl)oxy)-1-(naphthalen-1-ylmethyl)-1H-benzo[d]imidazole], the “Inhibition (%)” value turned out to be 40%. Regarding `COc1cccc(Oc2nc3ccccc3n2Cc2cccc3ccccc23)c1` [Compound 21, 2-(3-methoxyphenoxy)-1-(naphthalen-1-ylmethyl)-1H-benzo[d]imidazole], the “Inhibition (%)” value came to 62%. The same measure, in the same setting: the result for `CCn1c(OC23CC4CC(CC(C4)C2)C3)nc2ccccc21` [Compound 17, 2-(adamantan-1-yloxy)-1-ethyl-1H-benzo[d]imidazole] reads 61%; that for `COc1ccc(CSc2nc3ccccc3n2Cc2cccc3ccccc23)cc1` [Compound 18, 2-((4-methoxybenzyl)thio)-1-(naphthalen-1-ylmethyl)-1H-benzo[d]imidazole], 46%; that for `CC(C)=CCC/C(C)=C/CSc1nc2ccccc2n1Cc1ccccc1` [Compound 8, (E)-1-benzyl-2-((3,7-dimethylocta-2,6-dien-1-yl)thio)-1H-benzo[d]imidazole], 71%.

The test is the same for the next values; noted with them: read-out: Inhibition (%) of [3H]WIN55212-2 specific binding, 10 µM single dose; membranes from recombinant CHO cells expressing human CB2; duplicate.
On to `CC(C)=CCC/C(C)=C/COc1nc2ccccc2n1Cc1ccccc1` [Compound 11, (E)-1-benzyl-2-((3,7-dimethylocta-2,6-dien-1-yl)oxy)-1H-benzo[d]imidazole], for which the inhibition at 10 µM stood at 35%. Still for that read-out and setting: the result for `CC1CCC(C(C)C)C(Sc2nc3ccccc3n2Cc2cccc3ccccc23)C1` (centres unmarked) [Compound 1, 2-((2-isopropyl-5-methylcyclohexyl)thio)-1-(naphthalen-1-ylmethyl)-1H-benzo[d]imidazole] reads 2%; that for `CC(C)=CCC/C(C)=C/CSc1nc2ccccc2n1Cc1cccc2ccccc12` [Compound 7, (E)-2-((3,7-dimethylocta-2,6-dien-1-yl)thio)-1-(naphthalen-1-ylmethyl)-1H-benzo[d]imidazole], 42%; that for `CCn1c(SC2CC(C)CCC2C(C)C)nc2ccccc21` (centres unmarked) [Compound 3, 1-ethyl-2-((2-isopropyl-5-methylcyclohexyl)thio)-1H-benzo[d]imidazole], 69%. Take `CCCCCCC(C)(C)c1cc(OC)cc(Oc2nc3ccccc3n2Cc2ccccc2)c1` [Compound 25, 1-benzyl-2-(3-methoxy-5-(2-methyloctan-2-yl)phenoxy)-1H-benzo[d]imidazole]: the inhibition at 10 µM amounted to 33%. Turning to `CC1CCC(C(C)C)C(Oc2nc3ccccc3n2Cc2cccc3ccccc23)C1` (centres unmarked) [Compound 4, 2-((2-isopropyl-5-methylcyclohexyl)oxy)-1-(naphthalen-1-ylmethyl)-1H-benzo[d]imidazole], the inhibition at 10 µM was 37%. Take `CCCCCCC(C)(C)c1cc(OC)cc(Oc2nc3ccccc3n2CC)c1` [Compound 26, 1-ethyl-2-(3-methoxy-5-(2-methyloctan-2-yl)phenoxy)-1H-benzo[d]imidazole]: the inhibition at 10 µM worked out at 49%. Still for that read-out and setting: the result for `CCn1c(Oc2cccc(OC)c2)nc2ccccc21` [Compound 23, 1-ethyl-2-(3-methoxyphenoxy)-1H-benzo[d]imidazole] reads 54%; that for `CCn1c(SCc2ccc(OC)cc2)nc2ccccc21` [Compound 20, 1-ethyl-2-((4-methoxybenzyl)thio)-1H-benzo[d]imidazole], 63%. As to `CCn1c(SC/C=C(\C)CCC=C(C)C)nc2ccccc21` [Compound 9, (E)-2-((3,7-dimethylocta-2,6-dien-1-yl)thio)-1-ethyl-1H-benzo[d]imidazole], the inhibition at 10 µM came to 54%.

Take `CC1CCC(C(C)C)C(Sc2nc3ccccc3n2Cc2ccccc2)C1` (centres unmarked) [Compound 2, 1-benzyl-2-((2-isopropyl-5-methylcyclohexyl)thio)-1H-benzo[d]imidazole]: the inhibition at 10 µM was 72%.

As a reminder, the inhibition is the share of the control response that was lost under treatment.
